Data on 20 sequences can be found in PMC2573961 (PLoS ONE, 2008).

The subject of series [1] is ERAP1. As to the kind of experiment: 40 ng of ERAP1 in 20 mM Tris pH 8 buffer containing 100 mM NaCl. The conditions noted are these: human, 37°C, up to 1 hr.
Series [2] deals with ERAP1 (recombinant, Hi5 insect cells). Put plainly: purified recombinant ERAP1 in 20 mM Tris pH 8, 100 mM NaCl. The note with it: human, 37°C, up to 1 hr.
Series [3] relates to ERAP1. Put plainly: 40 ng ERAP1. The conditions noted are these: human, 37°C, up to 1 hr.
In series [4] the test system is ERAP1. Put plainly: 7.8 nM of ERAP1. The note with it: human, 37°C, up to 1 hr.
Series [5] has as its system ERAP1. As to the kind of experiment: ERAP1, trimming rate measurements (pmol/µg ERAP1×sec). The note with it: human.
Series [6] concerns ERAP1. As to the kind of experiment: 800 nM ERAP1. The conditions noted are these: human, 37°C, up to 1 hr.
Series [7] concerns ERAP1. As to the kind of experiment: 1 nM ERAP1. The note with it: human, 37°C, up to 1 hr.
Series [8] concerns ERAP1. As to the kind of experiment: 15.6 nM of ERAP1. The conditions noted are these: human, 37°C, up to 1 hr.
Series [9] has as its system ERAP1. Put plainly: purified recombinant ERAP1 (alanine scan). The note with it: human.
Another series deals with T1, human recombinant ERAP1 (Homo sapiens, UniProt Q9NZ08).
T1 construct: we over-expressed human recombinant full-length ERAP1 in insect cell suspension culture; hexa-His (C); myc; made in house; host or cells: Hi5 insect cells (baculovirus; virus made in SF9 cells)
Put plainly: N-terminus trimming of model peptides by ERAP1, products analysed by reverse-phase HPLC. The format is biochemical. The note with it: alanine scan, 40 ng of ERAP1, three separate experiments in parallel; RP-HPLC; Figure 3A. The method, then:
Human recombinant ERAP1 was produced in Hi5 insect cells grown in Excel405™ serum free medium, after infection by baculovirus carrying the ERAP1 gene with a C-terminal hexa-His tag. The enzyme was secreted into the cell medium, which was harvested by centrifugation (3000 rpm, 30 min, 4°C, GSA rotor) in a Sorvall centrifuge. The cell supernatant was subjected to 3 rounds of buffer exchange (10 fold dilution each time) using a large scale diafiltration apparatus versus 5 mM phosphate buffer at pH 7 containing 100 mM NaCl. The supernatant was then concentrated and its composition adjusted to 50 mM phosphate (pH 8), 300 mM NaCl, 10 mM imidazole and immediately loaded onto a HiTrap™ chelating column (Qiagen) that was pre-loaded with Ni(II)SO4. The column was washed with the same buffer containing 20 mM imidazole and the protein was eluted using a 20 mM to 150 mM imidazole gradient. […]
The digestion of model peptides by ERAP1 was followed by analysis of peptide products of the digestion on a reverse phase C18 column (Higgins Analytical 0546-C183). […] The elution was done with a 5% to 40% acetonitrile gradient at 1 ml/min, while following the absorbance at 214 nm or 280 nm. […]
Figure 1 Typical chromatogram of peptide product analysis after ERAP1 digestion. Samples were analyzed by HPLC reverse phase chromatography. […]

No end group written: not given here.

T1 sequence (Q9NZ08 1-948 isoform Q9NZ08-2): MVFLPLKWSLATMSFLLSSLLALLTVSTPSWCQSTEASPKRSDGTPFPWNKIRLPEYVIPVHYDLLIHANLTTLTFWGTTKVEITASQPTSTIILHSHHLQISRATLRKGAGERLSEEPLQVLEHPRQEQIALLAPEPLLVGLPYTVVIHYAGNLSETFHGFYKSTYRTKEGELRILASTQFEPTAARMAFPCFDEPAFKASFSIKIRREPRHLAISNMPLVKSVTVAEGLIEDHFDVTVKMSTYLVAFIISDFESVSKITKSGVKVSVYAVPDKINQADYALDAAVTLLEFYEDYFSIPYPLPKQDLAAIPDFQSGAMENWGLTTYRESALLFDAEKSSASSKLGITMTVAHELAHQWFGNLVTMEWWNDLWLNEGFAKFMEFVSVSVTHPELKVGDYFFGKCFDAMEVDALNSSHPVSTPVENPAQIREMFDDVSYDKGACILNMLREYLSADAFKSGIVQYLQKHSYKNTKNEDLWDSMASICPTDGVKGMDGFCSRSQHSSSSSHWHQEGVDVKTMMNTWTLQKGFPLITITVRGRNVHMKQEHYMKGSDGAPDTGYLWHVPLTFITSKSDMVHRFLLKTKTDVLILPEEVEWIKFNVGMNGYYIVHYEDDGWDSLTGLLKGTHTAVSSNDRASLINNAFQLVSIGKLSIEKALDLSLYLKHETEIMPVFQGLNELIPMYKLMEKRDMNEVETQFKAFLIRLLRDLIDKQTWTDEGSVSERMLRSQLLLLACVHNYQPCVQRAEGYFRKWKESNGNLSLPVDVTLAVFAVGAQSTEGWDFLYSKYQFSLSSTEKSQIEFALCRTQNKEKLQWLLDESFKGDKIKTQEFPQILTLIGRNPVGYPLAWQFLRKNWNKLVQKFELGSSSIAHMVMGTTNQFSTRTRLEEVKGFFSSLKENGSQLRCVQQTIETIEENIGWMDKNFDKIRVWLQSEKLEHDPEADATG

For AYWANATRSG, the cleaved bond entry in the series with ERAP1 [1] is given as “A-Y”.

For FYWANATRSG, the cleaved bond entry is on record as “F-Y, 1 hr” in series [2] and “F-Y, 1 hr” in the series with ERAP1 [1].

Take LAAALSIINFEKL: the not cleaved entry with ERAP1 [3] and in the series on ERAP1 [1] was “resistant to any trimming after 1 hr” in each case.

In the case of LAWANATRSG, in the series on ERAP1 [1], the cleaved bond result is “L-A”.

On to LSIINFEAL, for which the cleaved bond entry with ERAP1 [4] is listed as “L-S, 1 hr”.

With LSIINFEKL, the cleaved bond entry with ERAP1 [4] is recorded as “L-S”; in the series on ERAP1 [1], “L-S, 1 hr”.

For the sequence LSIINFEKLAAAL, the cleaved bond entry with ERAP1 [1] was “L-S, 1 hr”.

Regarding LTAEEAVET, in the series with ERAP1 [5], the cleaved bond entry is listed as “L-T”. Further, in the series on ERAP1 [6], the not cleaved entry is given as “completely resistant to trimming after 1 hr with 800 nM ERAP1”.

Turning to LVAFKARKF, the cleaved bond result in the series on ERAP1 [7] is recorded as “L-V, 1 hr”.

Regarding LVNVDYSAL, the cleaved bond entry with ERAP1 [8] is given as “L-V, 1 hr”.

In the case of LVNVDYSKL, in the series with ERAP1 [8], the cleaved bond result is “L-V, 1 hr”.

As to LYAANATRSG, the cleaved bond entry with ERAP1 [1] is given as “L-Y”.

Take LYWAAATRSG: the cleaved bond result in the series with ERAP1 [1] was “L-Y”.

With LYWANAARSG, in the series with ERAP1 [1], the cleaved bond result is “L-Y”.

For the sequence LYWANATASG, in the series with ERAP1 [5], the cleaved bond entry is “L-Y”. Also, the not cleaved entry with ERAP1 [9] is listed as “Less than 1% trimming”.

Take LYWANATASG [LYWANATASG]: the “percent N-terminus trimming detected” value on human recombinant ERAP1 is given as “Less than 1%”.

Turning to LYWANATRAG, the cleaved bond result with ERAP1 [1] is reported as “L-Y”.

For the sequence LYWANATRSA, the cleaved bond entry with ERAP1 [1] is “L-Y”.

Consider LYWANATRSG, for which the cleaved bond result in the series on ERAP1 [1] and in the series with ERAP1 [9] was “L-Y” throughout.

On to MYWANATRSG, for which, in the series with ERAP1 [1], the cleaved bond result is “M-Y”.
